ChEMBL document CHEMBL4842388, “Discovery of Potent, Selective, and Brain-Penetrant Apoptosis Signal-Regulating Kinase 1 (ASK1) Inhibitors that Modulate Brain Inflammation In Vivo” (J Med Chem, 2021)
Calls of active or inactive are those of the source. The rule behind the calls is not given here.

Tests used:
[1] = target: T1, Mitogen-activated protein kinase kinase kinase 5 (Homo sapiens, UniProt Q99683); assay: Inhibition of ASK1 (unknown origin) using myelin basic protein as substrate preincubated for 20 mins followed by 33P-ATP addition and measured after 2 hrs
T1 sequence (Q99683 whole entry): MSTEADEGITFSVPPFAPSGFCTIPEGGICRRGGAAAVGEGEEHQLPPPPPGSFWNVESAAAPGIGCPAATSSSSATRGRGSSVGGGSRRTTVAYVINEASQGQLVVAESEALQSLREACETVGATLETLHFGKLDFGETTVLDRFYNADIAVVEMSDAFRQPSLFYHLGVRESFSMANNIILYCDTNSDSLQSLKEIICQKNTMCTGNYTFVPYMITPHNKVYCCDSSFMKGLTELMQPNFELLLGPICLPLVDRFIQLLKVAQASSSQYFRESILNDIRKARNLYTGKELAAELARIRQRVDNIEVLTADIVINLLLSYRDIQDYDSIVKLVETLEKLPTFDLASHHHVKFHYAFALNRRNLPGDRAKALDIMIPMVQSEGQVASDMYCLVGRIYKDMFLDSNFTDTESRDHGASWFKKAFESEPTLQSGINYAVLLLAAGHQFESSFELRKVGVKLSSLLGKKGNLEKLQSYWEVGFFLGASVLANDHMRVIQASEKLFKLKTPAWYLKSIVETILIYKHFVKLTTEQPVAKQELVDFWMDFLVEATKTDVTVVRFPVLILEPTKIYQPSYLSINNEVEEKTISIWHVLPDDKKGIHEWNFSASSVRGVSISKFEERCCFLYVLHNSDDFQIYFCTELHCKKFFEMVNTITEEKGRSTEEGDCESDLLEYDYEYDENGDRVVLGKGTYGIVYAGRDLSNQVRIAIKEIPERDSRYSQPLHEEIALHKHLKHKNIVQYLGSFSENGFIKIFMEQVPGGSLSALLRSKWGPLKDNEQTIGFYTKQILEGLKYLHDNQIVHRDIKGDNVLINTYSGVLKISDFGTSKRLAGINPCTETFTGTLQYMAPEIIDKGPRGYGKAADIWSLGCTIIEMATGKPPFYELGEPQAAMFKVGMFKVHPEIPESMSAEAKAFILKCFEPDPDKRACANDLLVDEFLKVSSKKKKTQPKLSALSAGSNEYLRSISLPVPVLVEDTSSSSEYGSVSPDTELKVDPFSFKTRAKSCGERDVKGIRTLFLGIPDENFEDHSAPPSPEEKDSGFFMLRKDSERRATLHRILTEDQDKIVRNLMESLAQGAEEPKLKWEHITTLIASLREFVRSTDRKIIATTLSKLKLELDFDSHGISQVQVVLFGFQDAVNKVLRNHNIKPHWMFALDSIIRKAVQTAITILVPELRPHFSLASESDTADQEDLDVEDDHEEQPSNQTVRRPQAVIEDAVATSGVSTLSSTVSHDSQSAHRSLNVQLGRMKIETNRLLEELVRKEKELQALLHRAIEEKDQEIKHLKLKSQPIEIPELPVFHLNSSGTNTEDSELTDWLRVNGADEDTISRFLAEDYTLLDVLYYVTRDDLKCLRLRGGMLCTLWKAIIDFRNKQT

[2] = target: T2, Mitogen-activated protein kinase kinase kinase 5 (Mus musculus) (UniProt O35099); assay: In vivo inhibition of ASK1 in Tg4510 mouse model of Alzheimer's disease assessed as reduction in IL-1beta levels in cortex at 3 to 30 mg/kg, po BID for 3 days measured after 4 hrs post last dose by ELISA; format: functional, organism-based; conditions: dose 3-30 mg/kg, time 3.0 day
T2 sequence (whole entry): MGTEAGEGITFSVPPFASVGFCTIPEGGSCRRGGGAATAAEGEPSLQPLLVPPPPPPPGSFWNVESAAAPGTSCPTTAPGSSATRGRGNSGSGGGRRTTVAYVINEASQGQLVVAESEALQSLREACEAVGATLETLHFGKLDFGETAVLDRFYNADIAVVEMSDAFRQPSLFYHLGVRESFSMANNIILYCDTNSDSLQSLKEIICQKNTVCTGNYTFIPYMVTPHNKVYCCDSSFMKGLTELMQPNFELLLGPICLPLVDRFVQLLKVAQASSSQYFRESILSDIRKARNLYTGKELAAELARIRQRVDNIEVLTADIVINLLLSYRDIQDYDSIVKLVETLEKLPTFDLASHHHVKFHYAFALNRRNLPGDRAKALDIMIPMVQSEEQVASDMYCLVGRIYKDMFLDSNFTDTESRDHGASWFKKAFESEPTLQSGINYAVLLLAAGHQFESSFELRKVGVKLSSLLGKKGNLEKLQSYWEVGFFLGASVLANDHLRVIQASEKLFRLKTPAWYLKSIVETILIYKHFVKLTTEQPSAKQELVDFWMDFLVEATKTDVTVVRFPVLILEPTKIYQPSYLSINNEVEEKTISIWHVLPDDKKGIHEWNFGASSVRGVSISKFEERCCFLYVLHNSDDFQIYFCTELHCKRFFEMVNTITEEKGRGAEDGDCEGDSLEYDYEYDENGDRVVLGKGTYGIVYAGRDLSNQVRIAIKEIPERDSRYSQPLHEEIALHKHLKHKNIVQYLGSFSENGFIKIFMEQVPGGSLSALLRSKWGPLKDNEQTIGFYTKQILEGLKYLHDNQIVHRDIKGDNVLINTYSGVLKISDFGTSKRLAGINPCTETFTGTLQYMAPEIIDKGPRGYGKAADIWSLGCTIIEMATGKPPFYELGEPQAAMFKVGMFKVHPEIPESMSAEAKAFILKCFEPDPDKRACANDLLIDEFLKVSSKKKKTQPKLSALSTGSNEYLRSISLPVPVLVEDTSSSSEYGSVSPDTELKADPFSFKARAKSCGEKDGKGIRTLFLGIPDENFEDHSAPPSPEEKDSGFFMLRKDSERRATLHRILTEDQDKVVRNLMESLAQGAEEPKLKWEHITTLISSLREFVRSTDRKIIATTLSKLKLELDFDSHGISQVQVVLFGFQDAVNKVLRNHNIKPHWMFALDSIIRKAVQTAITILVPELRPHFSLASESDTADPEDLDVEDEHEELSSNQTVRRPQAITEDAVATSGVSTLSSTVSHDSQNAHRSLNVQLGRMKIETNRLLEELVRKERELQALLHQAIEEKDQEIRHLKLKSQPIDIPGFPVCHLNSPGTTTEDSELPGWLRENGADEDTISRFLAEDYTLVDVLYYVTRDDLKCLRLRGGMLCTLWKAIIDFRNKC

[3] = target: Adenosine receptor A2a (Homo sapiens, UniProt P29274); assay: Inhibition of A2A receptor (unknown origin)
[4] = target: T1, Mitogen-activated protein kinase kinase kinase 5; assay: Inhibition of full-length human ASK1 expressed in HEK293T cells assessed as reduction in autophosphorylation of ASK1 at […] residue incubated for 1 hr; format: cell-based
[5] = target: 5-hydroxytryptamine receptor 2B (Homo sapiens, UniProt P41595); assay: Inhibition of 5HT2B receptor (unknown origin)
[6] = target: T2, Mitogen-activated protein kinase kinase kinase 5 (Mus musculus); assay: In vivo inhibition of ASK1 in Tg4510 mouse model of Alzheimer's disease assessed as reduction in KC/GRO levels in cortex at 3 to 30 mg/kg, po BID for 3 days measured after 4 hrs post last dose by ELISA; format: functional, organism-based; conditions: dose 3-30 mg/kg, time 3.0 day
[7] = target: T2, Mitogen-activated protein kinase kinase kinase 5 (Mus musculus); assay: In vivo inhibition of ASK1 in Tg4510 mouse model of Alzheimer's disease assessed as reduction in MCP-1 levels in cortex at 3 to 30 mg/kg, po BID for 3 days measured after 4 hrs post last dose by ELISA; format: functional, organism-based; conditions: dose 3-30 mg/kg, time 3.0 day

Chain of 5-hydroxytryptamine receptor 2B (P41595 whole entry): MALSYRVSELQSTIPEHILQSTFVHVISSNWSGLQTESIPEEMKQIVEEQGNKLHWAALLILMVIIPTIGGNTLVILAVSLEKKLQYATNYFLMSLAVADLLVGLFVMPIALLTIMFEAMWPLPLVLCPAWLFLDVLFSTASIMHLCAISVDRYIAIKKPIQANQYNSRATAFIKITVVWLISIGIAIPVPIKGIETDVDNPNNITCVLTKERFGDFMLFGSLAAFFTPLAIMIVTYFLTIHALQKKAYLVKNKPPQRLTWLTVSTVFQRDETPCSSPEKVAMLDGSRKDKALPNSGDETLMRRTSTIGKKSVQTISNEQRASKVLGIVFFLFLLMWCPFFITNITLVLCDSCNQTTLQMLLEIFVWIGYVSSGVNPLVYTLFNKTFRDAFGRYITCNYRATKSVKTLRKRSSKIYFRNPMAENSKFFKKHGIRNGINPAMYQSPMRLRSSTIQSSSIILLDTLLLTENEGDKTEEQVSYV
Chain of Adenosine receptor A2a (P29274 whole entry): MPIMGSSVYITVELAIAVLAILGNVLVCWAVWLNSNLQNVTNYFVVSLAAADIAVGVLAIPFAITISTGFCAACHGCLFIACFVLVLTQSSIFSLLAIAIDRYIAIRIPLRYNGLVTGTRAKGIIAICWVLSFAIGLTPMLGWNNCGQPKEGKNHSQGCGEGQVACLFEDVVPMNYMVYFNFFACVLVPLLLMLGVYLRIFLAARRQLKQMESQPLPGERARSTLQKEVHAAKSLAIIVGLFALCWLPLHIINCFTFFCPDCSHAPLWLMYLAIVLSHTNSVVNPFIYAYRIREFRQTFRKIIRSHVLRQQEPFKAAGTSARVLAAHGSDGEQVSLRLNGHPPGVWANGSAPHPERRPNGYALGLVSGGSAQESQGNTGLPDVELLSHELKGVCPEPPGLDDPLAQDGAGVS

COc1ncc(F)cc1C(=O)Nc1cccc(-c2nncn2[C@@H](C)C(F)(F)F)n1
IC50 [1]: 7 nM
inhibition [2]: Active
IC50 [3]: > 1000 nM
IC50 [4]: 25 nM
IC50 [5]: > 1000 nM
inhibition [6]: Active
inhibition [7]: Active
